Data taken from PubChem BioAssay AID256 (DTP/NCI, 2004).
Values joined by “and” are separate entries in the source; they are usually repeats but may differ in a detail not shown here. Identical values can stand only once. Toxic doses and inconclusive results are not listed. Rule for the calls: active = survival T/C of 150% or more; inactive = T/C below 125% in these data.

Tested on: CD2F1 mice, L1210 leukemia ip, survival T/C
Assay: NCI In Vivo Anticancer Drug Screen. Data for tumor model L1210 Leukemia (intraperitoneal) in CD2F1 (CDF1) mice
Settings: higher = longer survival
In short: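 Vehicle-treated tumor-bearing mice served as controls (C) for compound-treated mice (T). Reported figure is T divided by C.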

[1] = endpoint: mean survival time, dose: 100.0 mg/kg/injection, schedule: Q01DX009 (ip), vehicle: saline with Tween-80
[2] = endpoint: mean survival time, dose: 200.0 mg/kg/injection, schedule: Q01DX009 (ip), vehicle: saline with Tween-80
[3] = endpoint: mean survival time, dose: 400.0 mg/kg/injection, schedule: Q01DX009 (ip), vehicle: saline with Tween-80
[4] = endpoint: mean survival time, dose: 100.0 mg/kg/injection, schedule: Q01DX001 (ip), vehicle: saline
[5] = endpoint: mean survival time, dose: 200.0 mg/kg/injection, schedule: Q01DX001 (ip), vehicle: saline
[6] = endpoint: mean survival time, dose: 400.0 mg/kg/injection, schedule: Q01DX001 (ip), vehicle: saline
[7] = endpoint: mean survival time, dose: 100.0 mg/kg/injection, schedule: Q04DX003 (ip), vehicle: saline with Tween-80
[8] = endpoint: mean survival time, dose: 200.0 mg/kg/injection, schedule: Q04DX003 (ip), vehicle: saline with Tween-80
[9] = endpoint: mean survival time, dose: 400.0 mg/kg/injection, schedule: Q04DX003 (ip), vehicle: saline with Tween-80

Measured: T/C

O=c1[nH]c(=S)n2ncnc2[nH]1
inactive: endpoint: mean survival time, dose: 100.0 mg/kg/injection, schedule: Q01DX009 (ip), vehicle: acetone 97 % of control | endpoint: mean survival time, dose: 200.0 mg/kg/injection, schedule: Q01DX009 (ip), vehicle: acetone 103 % of control | endpoint: mean survival time, dose: 400.0 mg/kg/injection, schedule: Q01DX009 (ip), vehicle: acetone 95 % of control

NC(=O)c1cc(=O)[nH]o1
inactive: [1] 102 % of control | [2] 96 % of control | [3] 107 % of control

NC(=Nc1ccccc1)Nc1ccccc1 (tested in a mixture with another compound)
inactive: endpoint: mean survival time, dose: 100.0 mg/kg/injection, schedule: Q04DX003 (ip), vehicle: saline 103 % of control | endpoint: mean survival time, dose: 200.0 mg/kg/injection, schedule: Q04DX003 (ip), vehicle: saline 97 % of control | endpoint: mean survival time, dose: 400.0 mg/kg/injection, schedule: Q04DX003 (ip), vehicle: saline 100 % of control

CN1NC=Nc2c(SCc3ccccc3)ncnc21
inactive: endpoint: mean survival time, dose: 75.0 mg/kg/injection, schedule: Q01DX001 (ip), vehicle: other 98 % of control

CSCCC(NC(=O)c1ccccc1)C(=O)O (stereo unspecified)
inactive: [1] 91 % of control | [2] 87 % of control | [3] 90 % of control

COc1cc2c(cc1OC)C(Cc1ccccc1[N+](=O)[O-])=NCC2
inactive: [4] 101 % of control | [5] 94 % of control | [6] 95 % of control

CC(=O)Nc1ccc(Br)cn1
inactive: endpoint: mean survival time, dose: 100.0 mg/kg/injection, schedule: Q01DX001 (ip), vehicle: saline with Tween-80 97 % of control | endpoint: mean survival time, dose: 200.0 mg/kg/injection, schedule: Q01DX001 (ip), vehicle: saline with Tween-80 105 % of control | endpoint: mean survival time, dose: 400.0 mg/kg/injection, schedule: Q01DX001 (ip), vehicle: saline with Tween-80 102 % of control

Cc1ccc(C2NC(=S)N3C(c4ccc(C)cc4)NC(=S)N23)cc1 (stereo unspecified)
inactive: endpoint: median survival time, dose: 25.0 mg/kg/injection, schedule: Q01DX009 (ip), vehicle: Klucel (hydroxypropylcellulose) (HPC) 105 % of control | endpoint: median survival time, dose: 50.0 mg/kg/injection, schedule: Q01DX009 (ip), vehicle: Klucel (hydroxypropylcellulose) (HPC) 104 % of control | endpoint: median survival time, dose: 100.0 mg/kg/injection, schedule: Q01DX009 (ip), vehicle: Klucel (hydroxypropylcellulose) (HPC) 106 % of control | endpoint: median survival time, dose: 200.0 mg/kg/injection, schedule: Q01DX009 (ip), vehicle: Klucel (hydroxypropylcellulose) (HPC) 104 % of control | endpoint: median survival time, dose: 400.0 mg/kg/injection, schedule: Q01DX009 (ip), vehicle: Klucel (hydroxypropylcellulose) (HPC) 101 % of control | endpoint: median survival time, dose: 800.0 mg/kg/injection, schedule: Q01DX009 (ip), vehicle: Klucel (hydroxypropylcellulose) (HPC) 106 % of control

Cc1ccc2c(c1)n([O-])c1cc(Cl)ccc1[n+]2=O
inactive: endpoint: median survival time, dose: 12.5 mg/kg/injection, schedule: Q01DX009 (ip), vehicle: saline with Tween-80 101 % of control and 111 % of control | endpoint: median survival time, dose: 25.0 mg/kg/injection, schedule: Q01DX009 (ip), vehicle: saline with Tween-80 120 % of control | endpoint: median survival time, dose: 30.0 mg/kg/injection, schedule: Q01DX009 (ip), vehicle: saline with Tween-80 108 % of control | endpoint: median survival time, dose: 50.0 mg/kg/injection, schedule: Q01DX009 (ip), vehicle: saline with Tween-80 114 % of control and 112 % of control | endpoint: median survival time, dose: 60.0 mg/kg/injection, schedule: Q01DX009 (ip), vehicle: saline with Tween-80 117 % of control | endpoint: median survival time, dose: 100.0 mg/kg/injection, schedule: Q01DX009 (ip), vehicle: saline with Tween-80 114 % of control and 122 % of control | endpoint: median survival time, dose: 167.0 mg/kg/injection, schedule: Q01DX009 (ip), vehicle: saline with Tween-80 123 % of control | endpoint: median survival time, dose: 200.0 mg/kg/injection, schedule: Q01DX009 (ip), vehicle: saline with Tween-80 124 % of control and 97 % of control | endpoint: median survival time, dose: 278.0 mg/kg/injection, schedule: Q01DX009 (ip), vehicle: saline with Tween-80 121 % of control

O=C(c1ccccc1)C(O)(CC(c1ccccc1)[P+](c1ccccc1)(c1ccccc1)c1ccccc1)c1ccccc1 (stereo unspecified)
inactive: endpoint: mean survival time, dose: 6.25 mg/kg/injection, schedule: Q01DX001 (ip), vehicle: saline with Tween-80 103 % of control | endpoint: mean survival time, dose: 12.5 mg/kg/injection, schedule: Q01DX001 (ip), vehicle: saline with Tween-80 96 % of control | endpoint: mean survival time, dose: 25.0 mg/kg/injection, schedule: Q01DX001 (ip), vehicle: saline with Tween-80 100 % of control

COc1ccc(-c2[nH]c(=S)[nH]c(=O)c2CCO)cc1
inactive: [1] 93 % of control | [7] 90 % of control | [8] 88 % of control | [3] 92 % of control | [9] 95 % of control

CC(=O)OCC1OC(n2ncc3c(Nc4ccccc4)ncnc32)C(OC(C)=O)C1OC(C)=O (stereo unspecified)
inactive: endpoint: mean survival time, dose: 25.0 mg/kg/injection, schedule: Q01DX009 (ip), vehicle: saline with Tween-80 93 % of control | endpoint: mean survival time, dose: 50.0 mg/kg/injection, schedule: Q01DX009 (ip), vehicle: saline with Tween-80 100 % of control | [1] 87 % of control | [2] 100 % of control | [3] 100 % of control

CCCC(NC(=O)C(C)Br)C(=O)O (stereo unspecified)
inactive: [7] 95 % of control | [8] 96 % of control | [9] 100 % of control

CC(=NC(c1ccccc1)c1ccccc1)N(C)C
inactive: endpoint: mean survival time, dose: 25.0 mg/kg/injection, schedule: Q04DX002 (ip), vehicle: saline with Tween-80 102 % of control | endpoint: mean survival time, dose: 50.0 mg/kg/injection, schedule: Q04DX002 (ip), vehicle: saline with Tween-80 98 % of control | endpoint: mean survival time, dose: 100.0 mg/kg/injection, schedule: Q04DX002 (ip), vehicle: saline with Tween-80 102 % of control

Cc1cc(O)cc(=O)o1
inactive: endpoint: mean survival time, dose: 200.0 mg/kg/injection, schedule: Q01DX001 (ip), vehicle: other 93 % of control | endpoint: mean survival time, dose: 400.0 mg/kg/injection, schedule: Q01DX001 (ip), vehicle: other 105 % of control

N#Cc1ccc(NC=O)cc1
inactive: endpoint: mean survival time, dose: 100.0 mg/kg/injection, schedule: Q04DX003 (ip), vehicle: Klucel (hydroxypropylcellulose) (HPC) 98 % of control | endpoint: mean survival time, dose: 200.0 mg/kg/injection, schedule: Q04DX003 (ip), vehicle: Klucel (hydroxypropylcellulose) (HPC) 98 % of control | endpoint: mean survival time, dose: 400.0 mg/kg/injection, schedule: Q04DX003 (ip), vehicle: Klucel (hydroxypropylcellulose) (HPC) 102 % of control

Cc1ccc(C)n1-c1ccccc1
inactive: endpoint: mean survival time, dose: 100.0 mg/kg/injection, schedule: Q01DX009 (ip), vehicle: saline + alcohol 107 % of control | [7] 103 % of control | endpoint: mean survival time, dose: 200.0 mg/kg/injection, schedule: Q01DX009 (ip), vehicle: saline + alcohol 105 % of control | [8] 106 % of control | endpoint: mean survival time, dose: 400.0 mg/kg/injection, schedule: Q01DX009 (ip), vehicle: saline + alcohol 100 % of control | [9] 95 % of control

COc1ccc2oc3c(ccc[n+]3C)c(=O)c2c1
inactive: endpoint: median survival time, dose: 60.0 mg/kg/injection, schedule: Q01DX005 (ip), vehicle: saline with Tween-80 104 % of control | endpoint: median survival time, dose: 120.0 mg/kg/injection, schedule: Q01DX005 (ip), vehicle: saline with Tween-80 108 % of control | endpoint: median survival time, dose: 240.0 mg/kg/injection, schedule: Q01DX005 (ip), vehicle: saline with Tween-80 122 % of control

COc1cc(C=Nc2cc(Cl)ccc2-n2ccnc2C)ccc1N(CCCl)CCCl
inactive: endpoint: mean survival time, dose: 12.5 mg/kg/injection, schedule: Q04DX003 (ip), vehicle: saline with Tween-80 117 % of control | endpoint: mean survival time, dose: 25.0 mg/kg/injection, schedule: Q04DX003 (ip), vehicle: saline with Tween-80 113 % of control | endpoint: mean survival time, dose: 50.0 mg/kg/injection, schedule: Q04DX003 (ip), vehicle: saline with Tween-80 118 % of control | [8] 115 % of control | [9] 89 % of control

CNc1c2c(nc3ccccc13)CCCC2
inactive: endpoint: mean survival time, dose: 5.0 mg/kg/injection, schedule: Q04DX003 (ip), vehicle: saline with Tween-80 96 % of control

CC(=O)NCCc1ccc2c(c1)[nH]c1ccccc12
inactive: [4] 101 % of control | [5] 100 % of control | [6] 93 % of control
